The numbers were not newly measured in patent publication US20130210879A1, “FORMULATIONS OF BENDAMUSTINE” (priority 2012, published 2013), which cites them from elsewhere.

With `Cn1c(CCCC(=O)O)nc2cc(N(CCCl)CCCl)ccc21` [Bendamustine], the stability in water result is recorded as “measured in hours”.
